What was measured:
[1] = tested on: RPK-9 cells; experiment: Combination DHS and gemcitabine, CI, RPK-9 cells; assay type: cell-based, human; conditions: RPK-9, in vitro, 10 μM DHS
Description: In vitro cytotoxicity assays. Cells growing in the Log phase were treated with various compounds at different concentrations (generally 0.137 to 100 μM) for 72 hours at 37° C. SRB assay (Vichai and Kirtikara, 2006) was performed and the absorbance at 510 nm was read with a plate reader. The proliferation rate was calculated according to the Manufacturer's instruction. The IC50 value for each compound was determined from dose-effect relationship using the CompuSyn software (version 1.0.1; CompuSyn, Inc, Paramus, N.J.) (Chou, 2006). Cell proliferating doubling time was monitored over a period of 72 hours.
Next, the effect of combined treatment with DHS and gemcitabine on pancreatic tumor cells was investigated.

[2] = tested on: HCT116 cells; experiment: BrdU incorporation by FACS; assay type: cell-based, human; conditions: reduced from 46.6%, 1 to 20 μM DHS
Source text: To test whether DHS can repress DNA replication, BrdU incorporation was examined using an immunofluorescent assay. […] BrdU incorporation was tracked by fluorescence-activated cell sorting (FACS).

[3] = biological target: T1, RRM1 and RRM2 proteins (Homo sapiens, UniProt P31350); experiment: RRM1 and RRM2 protein levels by Western blot; assay type: cell-based; conditions: HCT116 cells
T1 construct: endogenous in cells; host or cells: HCT116
Description: Western blot analysis. Compound-treated cells were harvested and lysed. Protein extracts were subjected to electrophoresis in a SDS-polyacrylamide gel. The resolved proteins were transferred onto polyvinylidene difluoride membranes (Amersham Biosciences, Piscataway, N.J., US). After the blocking step, membranes were incubated with primary IgG antibodies, washed, and then incubated with horseradish peroxidase-conjugated anti-rabbit IgG or anti-mouse IgG secondary antibodies. Western blot signals were visualized by chemiluminescence using SuperSignal West Pico chemiluminescence reagent (Pierce, Rockford, Ill., US).
The effect of DHS treatment on And-1, RRM1, and RRM2 expression was investigated.

[4] = biological target: T2, And-1 (Homo sapiens, UniProt O75717); experiment: Cellular thermal shift assay, And-1; assay type: cell-based; conditions: HCT116 cells
T2 construct: endogenous in cells; host or cells: HCT116
Description: In order to study the mechanisms by which DHS induces down-regulation of And-1, RRM1, and RRM2 proteins, DHS-resistant HCT116 cells were generated (FIG. 9C). […] Next, it was investigated whether DHS directly binds to And-1, RRM1, or RRM2. A cellular thermal shift assay (Jafari et al., 2014) was conducted for And-1 (FIG. 9E). […] A coimmunoprecipitation (CoIP) assay was conducted to determine whether And-1, RRM1, and RRM2 interact in the same complex. The result implied that […] (FIG. 9F).

[5] = biological target: T3, RRM2 (Homo sapiens, UniProt P31350); experiment: Thermal shift assay in HCT116 cells, RRM2; assay type: cell-based
T3 construct: endogenous in cells; host or cells: HCT116
T3 sequence (P31350 1-389): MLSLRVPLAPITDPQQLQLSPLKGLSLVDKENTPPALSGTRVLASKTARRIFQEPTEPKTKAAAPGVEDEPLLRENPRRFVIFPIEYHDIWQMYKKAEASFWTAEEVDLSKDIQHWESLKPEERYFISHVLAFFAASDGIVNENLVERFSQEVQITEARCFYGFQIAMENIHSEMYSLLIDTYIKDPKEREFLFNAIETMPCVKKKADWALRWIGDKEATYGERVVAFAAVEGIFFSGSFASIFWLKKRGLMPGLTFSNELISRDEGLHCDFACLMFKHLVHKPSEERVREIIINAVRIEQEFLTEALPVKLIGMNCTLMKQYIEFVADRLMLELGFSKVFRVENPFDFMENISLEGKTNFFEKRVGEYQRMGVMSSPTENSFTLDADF
Description: (§1) To investigate binding of DHS to RRM1 and RRM2, a thermal shift assay was performed in HCT116 cells treated with DMSO (vehicle), resveratrol, DHS, gemcitabine, or hydroxyurea (Hu). Gemcitabine is known to bind RRM1 (Plunkett et al., 1995 and Chen et al., 2011), and Hu has been reported to bind RRM2 (Thelander et al., 1985). […] DHS stabilized RRM2 protein in a dose responsive manner (5 to 20 μM DHS; FIG. 11A). To rule out nonspecific effects of DHS on RRM2, an in vitro thermal shift assay was conducted. Purified RRM1 and RRM2 were mixed and then incubated with DHS or Hu for 4 hours before performing the assay.

[6] = biological target: purified RRM2 protein (Homo sapiens, UniProt P31350); experiment: In vitro thermal shift assay with purified protein; assay type: binding; conditions: purified RRM1 and RRM2 mixed, incubated 4 hours
Description: as §1

[7] = tested on: Topoisomerase II; experiment: Topoisomerase II decatenation assay; assay type: biochemical
Source text: In addition, resveratrol has been previously reported to interact with DNA grooves (Usha et al., 2006). […] A similar result with And-1, RRM1, and RRM2 was also observed in DHS resistant HCT116 cells (data not shown).

[8] = tested on: HCT116 cells; experiment: Clonogenic colony formation assay; assay type: cell-based, human; conditions: 0 to 50 μM
Description: (§2) To confirm the cell killing effect of DHS, a clonogenic colony formation assay was conducted. […] The effect of DHS on growth of cancer cell lines was analyzed using The NCI Development Therapeutics Program (DTP).

[9] = tested on: cancer cell lines; experiment: NCI Development Therapeutics Program cell line growth; assay type: cell-based; conditions: NCI DTP cell lines
Description: as §2

[10] = tested on: KB, KB-Gem and KB-Hu; experiment: Cell survival of KB and resistant sublines; assay type: cell-based
Description: An oral cancer cell line, KB, and its gemcitabine-resistant and hydroxyurea resistant sublines, KB-Gem and KB-Hu, respectively, were treated with gemcitabine (FIG. 15A), hydroxyurea (FIG. 15B), or DHS (FIG. 15C).
Next, the effect of combined treatment with DHS and Gemcitabine or Hydroxyurea was investigated.

[11] = mouse, in vivo
Description: Xenograft mouse models. […] In xenograft studies, HCT116 (3×10^6 cells) and IGROV3/CP2 (5×10^6 cells) suspended in 100 μl of phosphate buffered saline (PBS, pH 7.4) were injected subcutaneously into the lower flank of the mice. Testing compounds were dissolved in DMSO/Tween 80/saline (10:10:80; v/v/v) buffer and were used to treat animals through intraperitoneal (i.p.) injection. […] The body weight of animals was measured throughout the study. Tumor diameters were measured with digital calipers, and the tumor volume in mm^3 was calculated by the formula: Volume=(width)^2×length/2.
HCT116 cells (5×10^6) were injected subcutaneously in nude mice and grown to approximately 100 mm^3 in volume. […] To study the preclinical toxicity of DHS, samples of hearts, livers, spleens, lung, and kidneys were collected on Day 38 and sections were stained for histological examination.

T2 sequence (O75717 whole entry): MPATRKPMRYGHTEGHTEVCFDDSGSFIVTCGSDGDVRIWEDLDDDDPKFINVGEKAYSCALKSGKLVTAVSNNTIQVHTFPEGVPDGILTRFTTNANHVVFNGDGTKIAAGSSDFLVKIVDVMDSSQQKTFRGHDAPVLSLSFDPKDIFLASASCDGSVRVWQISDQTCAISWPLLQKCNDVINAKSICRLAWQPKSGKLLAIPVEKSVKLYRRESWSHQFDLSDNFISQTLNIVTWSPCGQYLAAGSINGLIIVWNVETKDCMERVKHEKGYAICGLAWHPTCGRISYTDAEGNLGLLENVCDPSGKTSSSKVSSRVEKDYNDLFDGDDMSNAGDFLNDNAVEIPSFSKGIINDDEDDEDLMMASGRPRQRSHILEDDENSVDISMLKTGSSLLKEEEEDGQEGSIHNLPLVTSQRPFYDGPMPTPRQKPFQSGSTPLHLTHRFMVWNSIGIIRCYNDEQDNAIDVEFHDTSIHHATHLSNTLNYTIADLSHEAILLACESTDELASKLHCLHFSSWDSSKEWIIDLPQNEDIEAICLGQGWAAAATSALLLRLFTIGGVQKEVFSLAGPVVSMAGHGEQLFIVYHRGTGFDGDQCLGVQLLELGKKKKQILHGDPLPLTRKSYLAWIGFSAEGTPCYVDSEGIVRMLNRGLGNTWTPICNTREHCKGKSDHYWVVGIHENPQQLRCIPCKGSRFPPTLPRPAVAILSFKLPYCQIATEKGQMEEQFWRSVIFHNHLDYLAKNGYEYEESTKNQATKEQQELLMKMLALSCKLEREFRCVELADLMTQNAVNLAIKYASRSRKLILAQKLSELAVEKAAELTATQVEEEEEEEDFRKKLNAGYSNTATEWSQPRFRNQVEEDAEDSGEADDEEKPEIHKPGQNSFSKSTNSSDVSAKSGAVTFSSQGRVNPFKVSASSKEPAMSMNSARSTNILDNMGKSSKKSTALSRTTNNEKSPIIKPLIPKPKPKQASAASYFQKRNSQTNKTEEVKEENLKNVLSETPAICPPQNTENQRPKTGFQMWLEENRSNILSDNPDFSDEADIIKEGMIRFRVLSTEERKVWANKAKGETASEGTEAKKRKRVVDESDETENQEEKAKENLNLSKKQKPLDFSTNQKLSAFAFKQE

Oc1ccc(/C=C/c2ccc(O)cc2)cc1 [DHS, 4,4′-trans-dihydroxystilbene]
Resensitisation to gemcitabine [1]: resensitized the gemcitabine-resistant pancreatic cancer line, RPK-9, to gemcitabine | BrdU incorporation [2]: 9.52% | RRM1 and RRM2 protein levels [3]: caused down-regulation of RRM1 and RRM2 proteins | Binding to And-1 (cellular thermal shift) [4]: does not bind to And-1 | RRM2 levels in thermal shift assay (binding) [5]: binds to RRM2 | Stabilisation of purified RRM2 after high temperature incubation [6]: stabilized purified RRM2 protein | Topoisomerase II activity (decatenation of kDNA) [7]: inhibits Topoisomerase II activity | Colony formation [8]: stronger suppression effect on HCT116 cell colony formation than resveratrol | Cancer cell growth (GI50) compared to resveratrol [9]: improved effect on suppressing cancer cell growth as compared to resveratrol | Cell survival of resistant sublines ([10]; KB, KB-Gem, KB-Hu, DHS alone): overcame gemcitabine and hydroxyurea resistance | Resensitisation to gemcitabine and hydroxyurea ([10]; KB-Gem and KB-Hu, 10 μM DHS): resensitized cultured KB-gem and KB-Hu cell lines to gemcitabine and hydroxyurea | Histology, hearts, livers, lung, and kidneys [11]: no obvious damage | Histology, spleens [11]: Minor damage

From US11160767B2, “4,4′-trans-dihydroxystilbene for use in treating cancer” (The George Washington University, a Congressionally …, priority 2017, dated 2021)
